Test results: ChEMBL document CHEMBL1124566, “N-(phthalimidoalkyl) derivatives of serotonergic agents: a common interaction at 5-HT1A serotonin binding sites?” (J Med Chem, 1989)

The compounds below were run against T1, 5-hydroxytryptamine receptor 1A (Rattus norvegicus, UniProt P19327) (assay: Binding affinity of compound towards 5-HT 1A receptor by measuring ability to displace [3H]OH-DPAT from 5-hydroxytryptamine 1A receptor in rat hippocampal membranes).
T1 sequence (P19327 whole entry): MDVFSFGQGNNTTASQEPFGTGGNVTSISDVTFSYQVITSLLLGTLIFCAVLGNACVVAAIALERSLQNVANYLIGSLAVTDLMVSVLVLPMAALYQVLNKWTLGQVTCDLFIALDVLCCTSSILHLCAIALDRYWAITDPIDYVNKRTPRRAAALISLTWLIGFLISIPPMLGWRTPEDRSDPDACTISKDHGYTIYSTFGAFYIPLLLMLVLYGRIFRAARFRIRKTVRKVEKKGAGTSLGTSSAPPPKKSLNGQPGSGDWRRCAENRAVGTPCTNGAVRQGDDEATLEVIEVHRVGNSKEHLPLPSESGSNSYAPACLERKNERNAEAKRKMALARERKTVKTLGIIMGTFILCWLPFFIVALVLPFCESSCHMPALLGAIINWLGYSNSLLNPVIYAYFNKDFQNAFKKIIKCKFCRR
For `O=C1c2ccccc2C(=O)N1CCNCCCOc1cccc2ccccc12`, the Ki was 1330 nM.

These compounds were tested against T1, 5-hydroxytryptamine receptor 1A (assay: not given).
Format: cell membranes, Membrane
`COc1ccccc1CCCN(C)C` gave a Ki of 3200 nM. `COc1cccc2c1CC(NCCN1C(=O)c3ccccc3C1=O)CC2` (stereo not given) gave a Ki of 250 nM. Compound `COc1ccc2ccccc2c1N1CCNCC1` has a Ki of 34 nM. `COc1cccc2c1CC(NCCCN1C(=O)c3ccccc3C1=O)CC2` (stereo not given) showed a Ki of 48 nM. `COc1ccc2cccc(N3CCNCC3)c2c1` showed a Ki of 3.3 nM. `O=C1c2ccccc2C(=O)N1CCCCNCCCOc1cccc2ccccc12` showed a Ki of 25 nM. Work on `COc1ccccc1CCCNCCCCN1C(=O)c2ccccc2C1=O` yielded a Ki of 110 nM. Compound `COc1ccc2[nH]cc(CCNCCCCN3C(=O)c4ccccc4C3=O)c2c1` has a Ki of 20 nM. For `COc1ccccc1CCCN(C)CCCCN1C(=O)c2ccccc2C1=O`, the Ki was 170 nM. Compound `CN(CCCCN1C(=O)c2ccccc2C1=O)CCc1ccccc1` has a Ki of 300 nM. Work on `COc1ccc2[nH]cc(CCN(C)C)c2c1` [MEBUFOTENIN] yielded a Ki of 10 nM.

Biological target: T1, 5-hydroxytryptamine receptor 1A
Test: Binding affinity of compound towards 5-HT 1A receptor by measuring ability to displace [3H]OH-DPAT from 5-hydroxytryptamine 1A receptor in rat hippocampal membranes
Remark: another data set of the same source
`COc1ccccc1N1CCN(CCCCCN2C(=O)c3ccccc3C2=O)CC1` gave a Ki of 5 nM. `CN(C)CCc1ccccc1` was tested, and the Ki was 850 nM. `O=C1c2ccccc2C(=O)N1CCCNCCCOc1cccc2ccccc12` was tested, and the Ki was 45 nM.
